# Measured values published in US20160082082A1, “USE OF THERAPEUTIC PEPTIDES FOR THE TREATMENT AND PREVENTION OF CANCER” (ARIZONA CANCER THERAPEUTICS L.L.C., priority 2008, published 2016).
# Several values for one entry are separate records, joined by “and”; a condition that tells them apart may be missing. Equal values may be shown once. Where no end group is shown, it is not given here.
# Columns and labels:
# [1] = tested on: BT-20 breast cancer cells; assay: Cellular uptake of labelled peptide (fluorescence microscopy); type: cell-based, human; conditions: cells pulsed in vitro
# Description: FIGS. 1A-1F. […] FIG. 1A) Human MUC1's cytoplasmic amino acid sequence (MUC1CT; SEQ ID NO: 15), which includes an EGFR/src phosphorylation site (underline; SEQ ID NO: 15, residues 46-49) and β-catenin binding site (double underline; SEQ ID NO: 15, residues 50-59). […] The cells were treated with EGF (30′ EGF, 10 ng/ml) or without (-S, no serum) and protein lysates were generated and separated on an SDS-PAGE. The lysates were immunoblotted (IB) for EGFR (1005) and β-actin (AC-15) FIG. 1D-F MDA-MB-468 cells were treated with EGF (10 ng/ml) and either (FIG. 1D) hPMIP (10 μM), (FIG. 1E) PTD4 (10 μM) or (FIG. 1F) PBS overnight. The cells were fixed, probed for MUC1 (Texas Red) and β-catenin (FITC) and examined on a confocal microscope (400×). Co-localization (arrows) analysis was performed using Image Pro Plus and is designated with white pixels.
# BT20 cells were treated for 2 hours with 200 μM hPMIP tagged with FITC and fixed in 4% Paraformaldhyde/PBS. Fixed cells were washed 3 times with 0.02% NaN3/PBS and incubated with Slowfade Gold antifade reagent with DAPI (Invitrogen). Cells were visualized with a fluorescence DMLB Leica compound microscope. […]
# [2] = tested on: MMTV-pyV mT induced mammary gland tumors; assay: MMTV-pyV mT transgenic mouse spontaneous breast cancer; type: in vivo, mice; conditions: for number of established tumors that completely regressed: PTD4 n=60, PMIP n=70 tumor sites
# Description: FIGS. 4A-4D. […] FIG. 4A) MMTV-pyV mT transgenic mice were injected with FITC-msPMIP (50 μg/g body weight), sacrificed four hours later and various tissues visualized using fluorescence microscopy. FITC-msPMIP localization in the mouse mammary gland tumors is shown (2.5× and 8×). FIG. 4B) Mammary gland tumors (>0.5 cm in diameter) were allowed to develop and mice were injected daily (50 μg/g body weight, 21 day treatment, intraperitoneal (i.p.) injection, 1× per day) with either msPMIP (7 mice) or PTD4 (6 mice). At the end of treatment, animals were sacrificed and proteins lysates made of the tumors for later analysis. […] Numbers above data are number of tumors that meet the size criteria over the total potential tumor sites.
# MMTV-pyV mT mice (33), obtained from Jackson Laboratories) entered into study upon the development of tumors that measured ≧0.5 cm in at least one diameter. Only mice greater than seven weeks of age were included in the study and mice that developed fluid cysts were excluded. Animals were injected i.p. with 50 μg/g body weight of msPMIP or PTD4 once daily for 21 days. Each of ten mammary glands were measured using calipers every two days, and measurements were used to determine tumor volume based on the formula a^2×b/2, with a being the smaller diameter and b being the larger diameter. After treatment for 21 days, mice were sacrificed by CO2 inhalation and tissues resected. Several msPMIP treated mice were injected with FITC-msPMIP (50 μg/g body weight) one or four hours prior to sacrifice and intact tissues were visualized using a fluorescence MZFLIII Leica dissection microscope.
# [3] = tested on: MDA-MB-231 breast cancer cells implanted into the mammary fat pad of scid mice; assay: Human breast tumor xenograft in mammary fat pad; type: in vivo
# Description: FIGS. 3A-3E. […] FIG. 3A) MDA-MB-231 cells in Matrigel were injected into the mammary fat pad of scid mice, and daily peptide treatment (50 μg/g body weight of hPMIP or PTD4) began when tumors reached 100 mm^3 (PTD4 and hPMIP n=8) and primary tumor growth was assessed (*, p=0.028). FIG. 3B) After the end of treatment, the amount of time the tumors took to progress to 1000 mm^3 was measured (ANOVA, **, p=0.03). […] FIG. 3D) MDA-MB-231 cells in Matrigel were injected into the mammary fat pad of scid mice, and daily peptide treatment (50 μg/g of hPMIP or PTD4) began when tumors reached 500 mm^3 (PTD4 n=4 and hPMIP n=6) and primary tumor growth was assessed. FIG. 3E) Following 21 days of treatment the tumors were resected immediately and tumor regrowth at the primary site and spread to secondary mammary glands was monitored (PTD4 n=4 and hPMIP n=4). Error bars represent standard error.
# Immunocompromised (severe combined immune deficiency (scid)) mice (Taconic, Rockville, Md.) were tested for the presence of serum IgG and found to be <20 μg/ml IgG. Female mice (four to six weeks old) were injected with 1×10^7 cells embedded in Matri-gel (BD Biosciences) into the mammary fat pad and allowed to grow to either 100 mm^3 or 500 mm^3, based on the formula a^2×b/2 where a is the smaller diameter and b is the larger diameter. Mice were injected i.p. with 50 μg/g body weight of either PMIP or PTD4 control peptide for 21 days and measured with calipers every two days. Either at the end of 21 days, or after the tumor had reached 800 mm^3, tumors were resected by injecting the mice with buprenorphine (2.5 mg/kg body weight, Infusion Solutions, Totowa, N.J.) at least one hour prior to resection and anesthetizing the mice with isoflurane (Abbott, Abbott Park, Ill.). Following surgery, mice were treated with buprenorphine (2.5 mg/kg body weight) 8 and 16 hrs post-surgery. Animals were then followed for 10 days to examine regrowth at the primary tumor site or at secondary mammary glands, then sacrificed.
# [4] = tested on: human breast cancer cell line MDA-MB-231; assay: Annexin V and cell number quantification on plastic; type: cell-based; conditions: MDA-MB-231 grown on plastic
# Text: These cells were chosen as they represent models of high and low MUC1 expression, respectively (data not shown).
# [5] = tested on: MMTV-pyV mT induced mammary gland tumors; assay: MMTV-pyV mT transgenic mouse spontaneous breast cancer; type: in vivo; conditions: human peptide in MMTV-pyV mT mice
# MDA-MB-231 cells = assay: Invasion assay (Transwell into Type I collagen); type: cell-based, human; conditions: MDA-MB-231, 50 μM, vs PTD4 or PBS
# Description: FIGS. 2A-2C. […] FIG. 2A) BT20 cells were cultured in a 96-well dish (10^4 cells/well) and treated daily for 6 days with either hPMIP (10 μM) or PTD4 (10 μM) in RPMI 1640/1% FBS. An MTT assay was performed to quantify cell number after treatment was complete (***, p<0.0001). Error bars represent standard error. FIG. 2B) MDA-MB-231 and FIG. 2C) BT20 cell lines were treated with either hPMIP (50 μM), PTD4 (50 μM), or PBS overnight, labeled with Calcein AM, allowed to invade through a Transwell (8.0 μM) insert into a Type I collagen gel, and the invaded cells were fluorescently measured. (ANOVA, *p<0.0001, **p<0.0001, #p=0.007, ##p=0.007). Error bars represent standard deviation.
# Collagen matrix (0.9 mg/ml Type I Rat tail collagen (BD Biosciences, Billerica, Mass.), 83.0% (v/v) M-199 medium (Life Technologies), and 0.18% NaHCO3 (Fisher, Hampton, N.H.)) was poured into a 24 well plate. Prior to collagen polymerization a […] pore transwell insert (Corning Inc., Corning, N.Y.) was placed on top of the matrix. The polymerized collagen was rehydrated using a chemoattractant (20% FBS/RPMI 1640 with […] EGF). MDA-MB-231 cells were treated with 50 μM of peptide in serum free RPMI 1640 media for 17 hours. […] The number of fluorescently labeled cells that had invaded into the collagen were measured using a Molecular Devices spectrophotometer (Ex:485, Em:538, and Cutoff:530).
# EGFR = molecular target: T1, EGFR (Mus musculus, UniProt Q01279); assay: Immunoblot of tumor lysates after EGF and peptide injection; type: in vivo, MMTV-pyV mT mice; conditions: EGF and peptide 30 minutes prior to sacrifice, after 21 day treatment
# T1 construct: we generated protein lysates from tumors of MMTV-pyV mT animals injected with EGF and peptide; from tissue; host or cells: mammary gland tumours of MMTV-pyV mT mice
# Description: (§1) FIGS. 6A-6B. PMIP is associated with reduced Mud 1 expression. FIG. 6A) A representative MMTV-pyV mT msPMIP (P) treated mouse and a PTD4 mouse (C) were each injected 30 minutes prior to sacrifice with epidermal growth factor (1 μg/g body weight) and with peptide. Following sacrifice the tumors were collected and protein lysates were generated. Protein (50 μg) was separated by SDS-PAGE, transferred and immunoblotted for expression of phosphotyrosine (PY99), EGFR (1005), Muc1 (CT2), and β-actin (AC-15). FIG. 6B) Lysates from MDA-MD-231 xenograft tumors (not treated with EGF; described in […]) were similarly analyzed to determine levels of EGFR and MUC1 protein expression. Relative protein levels of Muc1 were measured by densitometry and graphed (Muc1/β-actin, ANOVA, *p=0.014). Molecular weights are shown on the right. IB=immunoblot. White lines through blots indicate same gel and exposure but were non-contiguous.
# To determine if msPMIP was affecting EGF-dependent degradation of EGFR, we generated protein lysates from tumors of MMTV-pyV mT animals injected with EGF and peptide 30 minutes prior to animal sacrifice (after a standard 21 day drug treatment).
# MUC1 [6] = assay: Immunoblot of xenograft tumor lysates for MUC1; type: in vivo, scid mice (MDA-MB-231 xenograft); conditions: MDA-MB-231 xenograft model
# Description: as §1
# (§2) To determine if msPMIP blocked interaction between Muc1 and β-catenin, we began by establishing levels of Muc1 protein expression in the tumor lysates. […] While the mechanism of this loss is unknown, it would certainly result in a loss of Muc1-dependent oncogenic signaling.
# Muc1 [7] = assay: Immunoblot of transgenic tumor lysates for Muc1; type: in vivo, MMTV-pyV mT mice; conditions: MMTV-pyV mT model
# Description: as §1, §2
substance,measurement,setting,value
"FITC-hPMIP: FITC-labeled PTD4 conjugated to MIP peptides (human) (YARAAARQARAPYEKVSAGNGGSSLS; not fully specified (N-terminus); also: FITC label, place not given here)",presence and retention of fluorescent peptide in cells,[1],found to contain the fluorescent peptide and it was retained over time
"PTD4: PTD4 protein transduction domain, SEQ ID NO: 16, used as control peptide (YARAAARQARA; synthetic protein translocation domain)","number of tumors sized 100-300 mm^3, end vs beginning of treatment","[2]; 50 μg/g i.p. daily, 21 days",doubled
same,tumor growth rate,"[2]; 50 μg/g i.p. daily, 21 days",69 mm^3/day
same,tumors larger than 100 mm^3 (of possible tumor sites),"[2]; 50 μg/g i.p. daily, 21 days",47%
same,tumors that grew larger than 500 mm^3 by the end of the study,"[2]; 50 μg/g i.p. daily, 21 days",13%
same,total tumor growth for all tumor sites,"[2]; 50 μg/g i.p. once daily, over 21 days of treatment",589.5%±283.6% and ~590%
same,number of established tumors that completely regressed,[2]; 21 day treatment,none
same,average tumor volume of regrowth / secondary mammary gland tumors after resection,"[3]; treatment begun at 500 mm^3, 50 μg/g i.p. 21 days, resection, 10 days follow-up without drug",760 mm^3
"hPMIP: human PMIP, SEQ ID NO: 17: MUC1 mimetic 15 amino acid peptide in tandem with PTD4 protein transduction domain (YARAAARQARAPYEKVSAGNGGSSLS; fusion protein)",effect on apoptosis (Annexin V),[4],no detectable effects
same,effect on cell growth (cell number),[4],no detectable effects
same,effect on tumor growth,[5],no effect on tumor growth
same,primary tumor size vs control,"[3]; treatment begun at 100 mm^3, 50 μg/g i.p. 21 days, p=0.028",significant decrease in tumor size
same,length of time to reach resection size of 800 mm^3,"[3]; treatment begun at 100 mm^3, after end of treatment, p=0.03",significant increase in the length of time
same,tumor regrowth and spread 10 days after resection,"[3]; treatment begun at 100 mm^3, resection at 800 mm^3",substantially decreased
same,number of regrowth and secondary mammary gland tumors,"[3]; treatment begun at 500 mm^3, after resection",found in equal number for both treatment groups
same,invasion into Type I collagen matrix,MDA-MB-231 cells,strongly inhibited cellular invasion
"msPMIP: mouse PMIP, SEQ ID NO: 18: mouse Muc1 mimetic peptide in tandem with PTD4 protein transduction domain (YARAAARQARAPYEEVSAGNGSSSLS; fusion protein)",expression of EGFR in tumor lysates,EGFR,striking reduction
same,phosphotyrosine in tumor lysates,EGFR,striking reduction
same,Muc1 protein expression in tumor lysates,MUC1 [6],induced a loss of Muc1 protein expression
same,"number of tumors sized 100-300 mm^3, end vs beginning of treatment","[2]; 50 μg/g i.p. daily, 21 days",remained the same
same,tumors larger than 100 mm^3 (of possible tumor sites),"[2]; 50 μg/g i.p. daily, 21 days",27%
same,tumors that grew larger than 500 mm^3 by the end of the study,"[2]; 50 μg/g i.p. daily, 21 days",1%
same,number of established tumors that completely regressed,[2]; 21 day treatment,four
same,tumor initiation (percent of tumor transitions from 0 mm^3 to 100 mm^3),"[2]; during drug treatment, p=0.0045",significant decrease
same,frank tumors remaining after treatment,"[2]; one representative mouse, 21 day treatment",no frank tumors remaining
same,Muc1 protein expression in tumor lysates,Muc1 [7],induced a loss of Muc1 protein expression
